Measurements as given in patent US7105567B2, “3-substituted urea derivatives and medicinal use thereof” (Mitsubishi Pharma Corporation, priority 2000, dated 2006).
Where a name gives a salt, the structure may show the parent alone.

How the values were obtained:
C5a receptor = target: T1, C5a receptor (Homo sapiens, UniProt P21730); assay: C5a receptor binding assay ([125I]-human C5a, dcAMP-U-937 cells); details: dcAMP-U-937 cell, [125I]-C5a 200 pM, 4° C. for 2 hr; read-out: IC50 value, concentration at which binding of [125I]-human C5a is inhibited by 50%
T1 construct: U-937 cell was stimulated with 1 mM dibutyryl cyclic AMP (dcAMP, SIGMA) for 2 days to express the C5a receptor; endogenous in cells; host or cells: U-937 cells (human histiocytic lymphoma line) differentiated with 1 mM dibutyryl cAMP for 2 days
T1 sequence (P21730 1-350): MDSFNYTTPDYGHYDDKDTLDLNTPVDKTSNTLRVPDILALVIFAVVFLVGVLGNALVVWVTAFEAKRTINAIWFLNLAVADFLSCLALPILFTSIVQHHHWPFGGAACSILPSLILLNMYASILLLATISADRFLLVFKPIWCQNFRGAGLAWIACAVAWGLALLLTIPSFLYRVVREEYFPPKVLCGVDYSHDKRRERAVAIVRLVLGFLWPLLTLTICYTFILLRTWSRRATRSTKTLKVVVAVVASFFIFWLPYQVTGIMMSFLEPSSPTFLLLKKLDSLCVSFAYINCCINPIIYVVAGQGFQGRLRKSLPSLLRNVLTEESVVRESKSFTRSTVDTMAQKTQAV
Method: The C5a receptor binding inhibitory action of C5a and the test compound was evaluated by a receptor binding assay comprising reacting human cell line U-937 (human histiocytic lymphoma line), which expresses the C5a receptor, with [^125I]-human C5a (Amersham Pharmacia Biotech) in a MultiScreen (MILLIPORE). First, U-937 cell was stimulated with 1 mM dibutyryl cyclic AMP (dcAMP, SIGMA) for 2 days to express the C5a receptor (dcAMP-U-937 cell), and suspended in a binding buffer [50 mM HEPES, 1 mM CaCl2, 5 mM MgCl2, 0.5% bovine serum albumin (BSA, SIGMA), 0.02% NaN3 (pH 7.2)] and stored at −80° C. The binding assay was started by the addition of 50 μL of dcAMP-U-937 cell suspension dissolved immediately before use, 25 μL of a binding buffer or a test compound solution, and 25 μL of [^125I]-C5a solution (final concentration 200 pM), to each well of the MultiScreen. […] After drying the MultiScreen, the radioactivity on the filter was measured using a gamma counter. The rate (% inhibition) of inhibition of C5a binding by the test compound was calculated by the following formula using the count value obtained without addition of the test compound as Total, the count value obtained with addition of non-labeled C5a as Non, and the count value obtained with addition of the test compound as Test. % Inhibition=100−[(Test−Non)/(Total−Non)]×100 […]

[1] = tested on: C5a-stimulated neutrophile; assay: Migrating ability of C5a-stimulated neutrophile; format: cell-based; details: 1.5 h; human neutrophile, C5a 100 pmol/L, chemotaxicell, 90 min; read-out: IC50 value, inhibition of migration of C5a-stimulated neutrophile
Method: A neutrophile fraction was separately taken from human peripheral venous blood using Lympholyte-poly (Cedarlane) and suspended in RPMI 1640 medium (GIBCO BRL) supplemented with 0.1% bovine serum albumin (BSA). To this neutrophile fraction (5×10^6 cells/mL) was added Calcein-AM (final concentration 5 μM, FUNAKOSHI), and the mixture was incubated at 37° C. for 30 min. The cells were washed by centrifugation and suspended to a concentration of 1×10^6 cells/mL. The migration was evaluated by adding neutrophiles to chemotaxicell (pore size: 3 μm, KURABO) and measuring the neutrophiles that migrated outside the chemotaxicell. First, 100 pmol/L of C5a solution was added to 24 well plate (500 μL/well) and chemotaxicell was set in the well. […] The fluorescent intensity of each well was measured by Cyto Fluor II (Ex: 485, Em: 530). The rate (% inhibition) of the inhibition of migration of C5a-stimulated neutrophile by the test compound was calculated by the following formula, wherein the fluorescence intensity of neutrophile that migrated by C5a stimulation without addition of the test compound is Max, the fluorescent intensity of neutrophile that migrated without addition of test compound and without C5a stimulation is Min, and the fluorescent intensity of neutrophile that migrated by C5a stimulation with the addition of the test compound is Test. % inhibition=100−[(Test−Min)/(Max−Min)]×100 […]

[2] = tested on: C5a stimulated neutrophile; assay: Action on increase of intracellular Ca2+ concentration of C5a stimulated neutrophile; format: cell-based, human
Method: A neutrophile fraction was separately taken from human peripheral venous blood using Lympholyte-poly (Cedarlane), and suspended in Hank's Balanced Salt Solution (HBSS, GIBCO BRL) supplemented with 1% fetal bovine serum (FBS). Then, Fura 2-AM (final concentration 5 μM, DOJINDO) was added to the neutrophile fraction (5×10^6 cells/mL), and the mixture was incubated at 37° C. for 40 min. The cells were washed by centrifugation and suspended to the concentration of 1×10^6 cells/mL. The intracellular Ca^2+ concentration was measured using a spectrophotofluorometer (CAF-110, JASCO Corporation), and calculated from the ratio (Ex340 value/Ex380 value) of fluorescent intensities at 500 nm upon excitation at 340 nm and 380 nm, the former being Ex340 value, the latter being Ex380 value. […] Then, Triton X-100 (final concentration 0.2%) was added and the cells were dissolved, and, sb2 value, which was the Ex 340 value then, and Rmax value, which was the Ex340 value/Ex380 value then, was measured. Then, EGTA (final concentration 3 mmol/L) was added and sf2 value, which was the Ex340 value then, and Rmin value, which was the Ex340/Ex380 value then, was measured. From these measurement results, the intracellular Ca^2+ concentration was calculated from the following formula. […]

[3] = tested on: C5a stimulated neutrophile; assay: Production of reactive oxygen species in C5a-stimulated neutrophile; format: cell-based; details: human neutrophile, C5a 3 nmol/L, luminol luminescence; read-out: IC50 value, inhibition of production of reactive oxygen species in C5a stimulated neutrophile
Method: A neutrophile fraction was separately taken from human peripheral venous blood using Lympholyte-poly (Cedarlane), and suspended in Hank's Balanced Salt Solution (HBSS, GIBCO BRL) containing 1% fetal bovine serum (FBS) and 1 mmol/L of luminol (Wako Pure Chemical Industries, Ltd.). Reactive oxygen species was measured using a luminometer (MicroLumat, Berthold) for 96 well plate. That is, 1×10^5 cells/150 μL of neutrophile suspension and 25 μL of a test compound solution were added to a well, which was set in a MicroLumat set for 37° C. and stood for about 5 min. Then, 25 μL of C5a (final concentration 3 nmol/L) was added and luminescence produced by the reaction of the luminol and the reactive oxygen species was measured with the lapse of time for 15 min. The rate (% inhibition) of inhibition of the production of reactive oxygen species in C5a stimulated neutrophile by the test compound was calculated by the following formula, wherein the peak value of the production of reactive oxygen species derived by C5a without addition of the test compound is Max, the peak value of the production of reactive oxygen species without addition of the test compound and without C5a stimulation is Min, and the peak value of the production of reactive oxygen species derived by C5a with the addition of the test compound is Test. % inhibition=100−[(Test−Min)/(Max−Min)]×100 […]

[4] = tested on: C5a-Induced Decrease in Neutrophile in Cynomolgus Monkey; assay: C5a-induced decrease in neutrophile in cynomolgus monkey; format: in vivo; details: 30 mg/kg orally, human C5a administered 4 hr later
Method: The action of the test compound on the decrease of neutrophile in peripheral blood, that occurs temporarily upon intravenous administration of human C5a to cynomolgus monkey, was evaluated. That is, the test compound was orally administered to cynomolgus monkey, and 4 hr later, human C5a was administered. The neutrophiles in peripheral blood were counted 2 min before and 1 min after administration of human C5a, and the rate (%) of decrease in neutrophiles in peripheral blood was calculated by the following formula. decrease rate (%)=100−[(neutrophiles in peripheral blood 1 min after administration of human C5a)/(neutrophiles in peripheral blood 2 min before administration of human C5a)]×100
Using the following formula, moreover, the inhibition rate (% inhibition) of decrease in neutrophiles in peripheral blood by the test compound was calculated. % inhibition=100−[(Test−Min)/(Max−Min)]×100 • Test: decrease rate of neutrophiles in peripheral blood when test compound and human C5a were administered • Min: decrease rate of neutrophiles in peripheral blood upon administration of administration medium for test compound and administration medium for human C5a • Max: decrease rate of neutrophiles in peripheral blood upon administration of administration medium for test compound and human C5a

`CC(C)c1ccc(N(Cc2ccc(N(C)C)cc2)C(=O)Nc2c(C(C)C)cccc2C(C)C)cc1` (as salt: fumarate) [Example 34, N′-(2,6-diisopropylphenyl)-N-[(4-dimethylaminophenyl)methyl]-N-(4-isopropylphenyl)urea 9/10 fumarate] showed a melting point of 203 to 206 °C.

With `CC(C)c1cccc(C(C)C)c1NC(=O)N(Cc1ccc(N(C)C)cc1)c1ccc(F)cc1` [Example 1, N′-(2,6-diisopropylphenyl)-N-[(4-dimethylaminophenyl)methyl]-N-(4-fluorophenyl)urea] the melting point was 124 to 125 °C.

With `CC(C)c1ccc(N(Cc2ccc(N(C)C)cc2)C(=O)Nc2c(C(C)C)cccc2C(C)C)cc1` [Example 34, N′-(2,6-diisopropylphenyl)-N-[(4-dimethylaminophenyl)methyl]-N-(4-isopropylphenyl)urea 9/10 fumarate] the IC50 (C5a receptor) was 100 nM, the IC50 [1] was 100 nM and the “agonistic action (increase in intracellular Ca2+ induced by the compound)” value ([2]; compound 10 μmol/L, human neutrophile) was “not found”. For the same compound, the IC50 ([2]; human peripheral blood neutrophile, recombinant human C5a 100 pmol/L, Fura 2-AM, read-out: IC50 value, inhibition of increase in intracellular Ca2+ concentration of C5a-stimulated neutrophile) was 5 nM and the IC50 [3] was 10 nM.

With `CC(C)c1ccc(N(Cc2ccc(Br)cc2)C(=O)Nc2c(C(C)C)cccc2C(C)C)cc1` [Example 53, N-[(4-bromophenyl)methyl]-N′-(2,6-diisopropylphenyl)-N-(4-isopropylphenyl)urea] the “% inhibition of decrease in neutrophiles in peripheral blood” value [4] was 74%.

`CC(C)c1ccc(N(Cc2cnn(Cc3ccc(C(F)(F)F)cc3)c2)C(=O)Nc2c(C(C)C)cccc2C(C)C)cc1` [Example 61, N′-(2,6-diisopropylphenyl)-N-(4-isopropylphenyl)-N-{[1-(4-trifluoromethylbenzyl)pyrazol-4-yl]methyl}urea] gave a melting point of 134 to 135 °C.
